Experiment [1] addresses T1, BaF3-Tel-IGF1-R (Homo sapiens, UniProt P08069).
T1 construct: the kinase domain of IGF-1R (aa 976-1367) linked by a Ser-Arg-linker; expressed in transfected cells; host or cells: BaF3 murine proB-cell lymphoma cells, stably transduced
Description: BaF3 cell viability assay (resazurin/AlamarBlue), 96-well format. In kind it is cell-based. As to conditions: 96-well plate format; 48 h incubation; resazurin dye reduction; cell proliferation/viability. The source says:
BaF3-Tel-IGF1-R and BaF3-InsR are BaF3 murine proB-cell lymphoma cell derivatives [the BaF3 cell line (also termed Ba/F3) is available from the German Collection of Microorganisms and Cell Cultures (DSMZ), Braunschweig, Germany] that have been rendered IL-3-independent by stable transduction with kinase-activating fusions between human TEL (aa 1-452) and the kinase domain of IGF-1R (aa 976-1367) linked by a Ser-Arg-linker (Boulay et al, Cancer Res 68, 3743-3751, 2008), and a fusion between human TEL (aa 1-337) and the kinase domain (aa 1015-1382) of the Insulin receptor (Melnick J S et al, Proc Natl Acad Sci USA 103, 3153-3158, 2006), respectively. Cells are cultured in RPMI-1640 (Animed #1-14F01-1) supplemented with 2% L-glutamine (Animed #5-10K50-H) and 10% fetal calf serum (FCS, Animed #2-01F16-I). Wild-type, untransfected BaF3 cells are maintained in above medium plus 10 U/ml IL-3 (mouse Interleukin-3, Roche #1380745 or Invitrogen # PMC0035) and are used to identify non-selective, generally growth-inhibitory compounds. Cells (1.5×10^4 cells per well) are seeded in 190 μl fresh medium into 96-well plates. […] In addition, a plate blank value is routinely determined in a well containing only 100 μl of medium and no cells. […] Following incubation of the cells for 48 h at 37° C. and 5% CO2, the effect of inhibitors on cell viability is assessed by the resazurin sodium salt dye reduction assay (commercially known as AlamarBlue assay) basically as previously described (O'Brien J. et al., Eur. J. Biochem. 267: 5421-5426, 2000). […] Thereafter, fluorescence is measured using a Saphirell 96-well plate reader (TECAN, Männedorf, Switzerland) with the following settings: Excitation 544 nm and Emission 590 nm. […] The effect of a particular test compound concentration on cell proliferation and viability is expressed as percentage of the blank-corrected reading obtained for cells treated with vehicle only, which is set as 100%. IC50 values can be determined using XLfit (V4.2), applying standard four parameter logistic model #205 (IDBS, Guilford, UK) or other common curve-fitting software.
In general terms: The colour change of resazurin is a common sign of viable cells or microbes.

The target in experiment [2] is T1, BaF3-Tel-IGF1-R. Description: BaF3 cell viability assay (resazurin), 384-well format. In kind it is cell-based. As to conditions: 384-well plate format; 48 h incubation; resazurin dye reduction; cell proliferation/viability. The source says:
BaF3-Tel-IGF1-R and BaF3-InsR are BaF3 murine proB-cell lymphoma cell derivatives [the BaF3 cell line (also termed Ba/F3) is available from the German Collection of Microorganisms and Cell Cultures (DSMZ), Braunschweig, Germany] that have been rendered IL-3-independent by stable transduction with kinase-activating fusions between human TEL (aa 1-452) and the kinase domain of IGF-1R (aa 976-1367) linked by a Ser-Arg-linker (Boulay et al, Cancer Res 68, 3743-3751, 2008), and a fusion between human TEL (aa 1-337) and the kinase domain (aa 1015-1382) of the Insulin receptor (Melnick J S et al, Proc Natl Acad Sci USA 103, 3153-3158, 2006), respectively. Cells are cultured in RPMI-1640 (Animed #1-14F01-1) supplemented with 2% L-glutamine (Animed #5-10K50-H) and 10% fetal calf serum (FCS, Animed #2-01F16-I). Wild-type, untransfected BaF3 cells are maintained in above medium plus 10 U/ml IL-3 (mouse Interleukin-3, Roche #1380745 or Invitrogen # PMC0035) and are used to identify non-selective, generally growth-inhibitory compounds. Cells (1.5×10^4 cells per well) are seeded in 190 μl fresh medium into 96-well plates. 10 μl 20× compound solutions are added. As internal control, the kinase inhibitor PKC412 is routinely used. Control cells treated with DMSO (0.1% final concentration) serve as growth reference (set as 100% growth). In addition, a plate blank value is routinely determined in a well containing only […] of medium and no cells. IC50 determinations are performed based on eight 3-fold serial dilutions of the test compound, starting at 10 μM. Following incubation of the cells for 48 h at 37° C. and 5% CO2, the effect of inhibitors on cell viability is assessed by the resazurin sodium salt dye reduction assay (commercially known as AlamarBlue assay) basically as previously described (O'Brien J. et al., Eur. J. Biochem. 267: 5421-5426, 2000). Briefly, 20 μl dye solution is added per well and the plates incubated for 6 h at 37° C. and 5% CO2. Thereafter, fluorescence is measured using a Saphirell 96-well plate reader (TECAN, Männedorf, Switzerland) with the following settings: Excitation 544 nm and Emission 590 nm. For data analysis, the plate blank value is subtracted from all data points. The effect of a particular test compound concentration on cell proliferation and viability is expressed as percentage of the blank-corrected reading obtained for cells treated with vehicle only, which is set as 100%. IC50 values can be determined using XLfit (V4.2), applying standard four parameter logistic model #205 (IDBS, Guilford, UK) or other common curve-fitting software.
To achieve a higher throughput, the cell viability assay can also be performed in a 384-well format. Briefly, 4′500 freshly diluted cells are seeded in 54 μl/well into 384-well plates using a liquid dispenser. 6 μl 10× compound solution is added to the cell plate. As internal control, the kinase inhibitor PKC412 is routinely used. Control cells treated with DMSO (0.1% final concentration) serve as growth reference (set as 100% growth). In addition, a plate blank value is routinely determined in a well containing only 60 μl of medium and no cells. Dose-response effects are determined by 3-fold serial compound dilutions, starting at 10 μM. Following incubation of the cells for 48 h at 37° C. and 5% CO2, the effect of compounds on cell proliferation/viability is assessed by addition of 6 μl resazurin sodium salt dye solution per well. Following incubation for an additional 6 hrs at 37° C. and 5% CO2, fluorescence is measured using an Infiniti M1000 microplate reader (TECAN, Männedorf, Switzerland) with excitation and emission wavelengths set at 544 and 590 nm, respectively. For data analysis, the plate blank value is subtracted from all data points. IC50 values can be determined by four parameter logistic fitting as described above.

T1 sequence (P08069 976-1367): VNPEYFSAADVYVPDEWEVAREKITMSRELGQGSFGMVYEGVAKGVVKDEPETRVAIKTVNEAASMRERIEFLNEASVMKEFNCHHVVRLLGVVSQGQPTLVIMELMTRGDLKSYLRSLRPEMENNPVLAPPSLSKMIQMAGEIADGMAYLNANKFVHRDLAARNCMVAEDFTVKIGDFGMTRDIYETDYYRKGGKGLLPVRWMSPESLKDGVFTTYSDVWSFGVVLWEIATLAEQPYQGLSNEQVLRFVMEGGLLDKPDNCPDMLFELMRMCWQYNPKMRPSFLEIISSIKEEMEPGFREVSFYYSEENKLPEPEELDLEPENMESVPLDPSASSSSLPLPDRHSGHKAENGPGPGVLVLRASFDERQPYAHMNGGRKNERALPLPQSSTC

`CC(=O)Nc1ccccc1N1CCC(n2c(=N)n(Cc3ccccc3Cl)c3ccccc32)CC1` [Example 56.6, N-(2-{4-[3-(2-Chloro-benzyl)-2-imino-2,3-dihydro-benzoimidazol-1-yl]-piperidin-1-yl}-phenyl)-acetamide]: the IC50 in experiment [1] was found to be 0.093 µM; in experiment [2], 0.148 µM.

Usually IC50 stands for the concentration that inhibits the measured activity by half. High values mean weaker potency, low ones greater potency.

The values are drawn from patent US20130085161A1, “PIPERIDINYL SUBSTITUTED 1,3-DIHYDRO-BENZOIMIDAZOL-2-YLIDENEAMINE DERIVATIVES” (NOVARTIS AG, priority 2010, published 2013).
